Measurements: PubChem BioAssay AID1963833 (Molecular Pharmacology Branch, DTP, NCI, 2024)

Tested on: 883617-216-R-J1-PDC complex spheroid viability
Assay: Anticancer human tumor 883617-216-R-J1-PDC patient-derived bladder carcinoma cell line growth inhibition [POLQ]
Conditions: for IC50: curve of first compound; for viability, T/C: stronger effect = lower value
How it was run: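 Three-cell-type spheroids modelling solid tumor plus stroma served as the readout system; POL inhibitors were tested individually and in combination, concentration ranges set by clinical Cmax where known.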
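Also: spheroids exposed to compounds for seven days before readout.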
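For viability, T/C in this document: 100% = DMSO vehicle control viability.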

SMILES: CC(=O)O[C@H]1C(=O)[C@@]2(C)[C@H]([C@H](OC(=O)c3ccccc3)[C@]3(O)C[C@H](OC(=O)[C@H](O)[C@@H](NC(=O)c4ccccc4)c4ccccc4)C(C)=C1C3(C)C)[C@]1(OC(C)=O)CO[C@@H]1C[C@@H]2O + Cc1cccc(N(C)C(=O)C2C(O)CCN2c2nc(C)cc(C(F)(F)F)c2C#N)c1
- IC50 (second compound 0.0316 µM): < 9.49 nM
- IC50 (second compound 0.1 µM): < 9.49 nM
- IC50 (second compound 0.316 µM): 10.4 nM
- IC50 (second compound 1 µM): < 9.49 nM
- IC50 (second compound 3.16 µM): < 9.49 nM
- IC50 (second compound 10 µM): 11.1 nM
- viability, T/C (second compound 0.0316 µM, first compound 0.00949 µM): 40.2%
- viability, T/C (second compound 0.0316 µM, first compound 0.03 µM): 22.1%
- viability, T/C (second compound 0.0316 µM, first compound 0.0949 µM): 22%
- viability, T/C (second compound 0.0316 µM, first compound 0.3 µM): 19.8%
- viability, T/C (second compound 0.0316 µM, first compound 0.949 µM): 18.5%
- viability, T/C (second compound 0.0316 µM, first compound 3 µM): 23.1%
- viability, T/C (second compound 0.1 µM, first compound 0.00949 µM): 46.9%
- viability, T/C (second compound 0.1 µM, first compound 0.03 µM): 29.2%
- viability, T/C (second compound 0.1 µM, first compound 0.0949 µM): 21.6%
- viability, T/C (second compound 0.1 µM, first compound 0.3 µM): 27.5%
- viability, T/C (second compound 0.1 µM, first compound 0.949 µM): 24.6%
- viability, T/C (second compound 0.1 µM, first compound 3 µM): 26.7%
- viability, T/C (second compound 0.316 µM, first compound 0.00949 µM): 52.2%
- viability, T/C (second compound 0.316 µM, first compound 0.03 µM): 25.1%
- viability, T/C (second compound 0.316 µM, first compound 0.0949 µM): 24.4%
- viability, T/C (second compound 0.316 µM, first compound 0.3 µM): 23.9%
- viability, T/C (second compound 0.316 µM, first compound 0.949 µM): 20.8%
- viability, T/C (second compound 0.316 µM, first compound 3 µM): 24.8%
- viability, T/C (second compound 1 µM, first compound 0.00949 µM): 45.4%
- viability, T/C (second compound 1 µM, first compound 0.03 µM): 29.2%
- viability, T/C (second compound 1 µM, first compound 0.0949 µM): 22.4%
- viability, T/C (second compound 1 µM, first compound 0.3 µM): 18.9%
- viability, T/C (second compound 1 µM, first compound 0.949 µM): 26.1%
- viability, T/C (second compound 1 µM, first compound 3 µM): 28.2%
- viability, T/C (second compound 3.16 µM, first compound 0.00949 µM): 44.1%
- viability, T/C (second compound 3.16 µM, first compound 0.03 µM): 24.4%
- viability, T/C (second compound 3.16 µM, first compound 0.0949 µM): 32.5%
- viability, T/C (second compound 3.16 µM, first compound 0.3 µM): 27.6%
- viability, T/C (second compound 3.16 µM, first compound 0.949 µM): 41.8%
- viability, T/C (second compound 3.16 µM, first compound 3 µM): 28.9%
- viability, T/C (second compound 10 µM, first compound 0.00949 µM): 54.7%
- viability, T/C (second compound 10 µM, first compound 0.03 µM): 19.3%
- viability, T/C (second compound 10 µM, first compound 0.0949 µM): 21.2%
- viability, T/C (second compound 10 µM, first compound 0.3 µM): 25.3%
- viability, T/C (second compound 10 µM, first compound 0.949 µM): 21.4%
- viability, T/C (second compound 10 µM, first compound 3 µM): 15.6%

SMILES: CC[C@@]1(O)C(=O)OCc2c1cc1n(c2=O)Cc2cc3c(CN(C)C)c(O)ccc3nc2-1 + Cc1cccc(N(C)C(=O)C2C(O)CCN2c2nc(C)cc(C(F)(F)F)c2C#N)c1
- IC50 (second compound 0.0316 µM): > 100 nM
- IC50 (second compound 0.1 µM): > 100 nM
- IC50 (second compound 0.316 µM): > 100 nM
- IC50 (second compound 1 µM): > 100 nM
- IC50 (second compound 3.16 µM): > 100 nM
- IC50 (second compound 10 µM): > 100 nM
- viability, T/C (second compound 0.0316 µM, first compound 0.000316 µM): 96.3%
- viability, T/C (second compound 0.0316 µM, first compound 0.001 µM): 85.8%
- viability, T/C (second compound 0.0316 µM, first compound 0.00316 µM): 96.1%
- viability, T/C (second compound 0.0316 µM, first compound 0.01 µM): 79.3%
- viability, T/C (second compound 0.0316 µM, first compound 0.0316 µM): 57.5%
- viability, T/C (second compound 0.0316 µM, first compound 0.1 µM): 54.1%
- viability, T/C (second compound 0.1 µM, first compound 0.000316 µM): 101%
- viability, T/C (second compound 0.1 µM, first compound 0.001 µM): 93.3%
- viability, T/C (second compound 0.1 µM, first compound 0.00316 µM): 83.7%
- viability, T/C (second compound 0.1 µM, first compound 0.01 µM): 81.5%
- viability, T/C (second compound 0.1 µM, first compound 0.0316 µM): 58%
- viability, T/C (second compound 0.1 µM, first compound 0.1 µM): 61.4%
- viability, T/C (second compound 0.316 µM, first compound 0.000316 µM): 102%
- viability, T/C (second compound 0.316 µM, first compound 0.001 µM): 106%
- viability, T/C (second compound 0.316 µM, first compound 0.00316 µM): 87.6%
- viability, T/C (second compound 0.316 µM, first compound 0.01 µM): 68.7%
- viability, T/C (second compound 0.316 µM, first compound 0.0316 µM): 64.6%
- viability, T/C (second compound 0.316 µM, first compound 0.1 µM): 64.4%
- viability, T/C (second compound 1 µM, first compound 0.000316 µM): 99.5%
- viability, T/C (second compound 1 µM, first compound 0.001 µM): 113%
- viability, T/C (second compound 1 µM, first compound 0.00316 µM): 97.1%
- viability, T/C (second compound 1 µM, first compound 0.01 µM): 83.1%
- viability, T/C (second compound 1 µM, first compound 0.0316 µM): 63.8%
- viability, T/C (second compound 1 µM, first compound 0.1 µM): 62.8%
- viability, T/C (second compound 3.16 µM, first compound 0.000316 µM): 100%
- viability, T/C (second compound 3.16 µM, first compound 0.001 µM): 103%
- viability, T/C (second compound 3.16 µM, first compound 0.00316 µM): 98%
- viability, T/C (second compound 3.16 µM, first compound 0.01 µM): 88.4%
- viability, T/C (second compound 3.16 µM, first compound 0.0316 µM): 66.9%
- viability, T/C (second compound 3.16 µM, first compound 0.1 µM): 61.8%
- viability, T/C (second compound 10 µM, first compound 0.000316 µM): 112%
- viability, T/C (second compound 10 µM, first compound 0.001 µM): 94.6%
- viability, T/C (second compound 10 µM, first compound 0.00316 µM): 105%
- viability, T/C (second compound 10 µM, first compound 0.01 µM): 79.5%
- viability, T/C (second compound 10 µM, first compound 0.0316 µM): 67.7%
- viability, T/C (second compound 10 µM, first compound 0.1 µM): 71%
